Calls of active or inactive are those of the source.
What was measured:
[1] = molecular target: T1, Leucine aminopeptidase (Plasmodium falciparum 3D7, UniProt Q8IL11); assay: P. falciparum M17LAP inhibitors, primary screen, biochemical, fluorogenic H-Leu-NHMec substrate, 1536-well (AID 1619); format: functional
T1 sequence (Q8IL11 whole entry): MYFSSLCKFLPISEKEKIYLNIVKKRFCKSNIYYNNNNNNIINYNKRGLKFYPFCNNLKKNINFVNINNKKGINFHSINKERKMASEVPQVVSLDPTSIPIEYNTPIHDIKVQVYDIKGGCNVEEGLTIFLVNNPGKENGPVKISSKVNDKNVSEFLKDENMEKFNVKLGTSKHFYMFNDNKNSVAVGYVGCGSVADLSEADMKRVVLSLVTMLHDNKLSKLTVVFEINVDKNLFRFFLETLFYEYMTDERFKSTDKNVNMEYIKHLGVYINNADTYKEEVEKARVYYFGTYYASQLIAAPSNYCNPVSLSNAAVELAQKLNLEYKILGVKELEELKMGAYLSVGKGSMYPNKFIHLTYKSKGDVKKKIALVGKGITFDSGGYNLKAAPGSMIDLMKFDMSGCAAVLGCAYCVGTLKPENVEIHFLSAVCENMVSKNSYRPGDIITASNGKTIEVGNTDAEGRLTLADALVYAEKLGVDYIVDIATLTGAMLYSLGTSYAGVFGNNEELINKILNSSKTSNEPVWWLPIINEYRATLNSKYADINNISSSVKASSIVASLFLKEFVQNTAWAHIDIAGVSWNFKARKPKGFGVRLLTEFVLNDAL

[2] = molecular target: Procathepsin L (Homo sapiens, UniProt P07711); assay: CTSL1 protease inhibition – biochemical, QFRET, 1536-well, counter-screen for M1/M17 aminopeptidase inhibitor project, dose response (AID 2214)
[3] = molecular target: T2, Aspartyl aminopeptidase (Plasmodium falciparum 3D7, UniProt Q8I2J3); assay: Counterscreen for inhibitors of M1 and M17 aminopeptidases: QFRET-based biochemical high throughput dose response assay for inhibitors of the Plasmodium falciparum M18 Aspartyl Aminopeptidase (PFM18AAP). [Related PubChem assays: 1619 (Screening assay (M17LAP inhibitors).), 1445 (Screening assay (M1AAP inhibitors).)]
T2 sequence (Q8I2J3 whole entry): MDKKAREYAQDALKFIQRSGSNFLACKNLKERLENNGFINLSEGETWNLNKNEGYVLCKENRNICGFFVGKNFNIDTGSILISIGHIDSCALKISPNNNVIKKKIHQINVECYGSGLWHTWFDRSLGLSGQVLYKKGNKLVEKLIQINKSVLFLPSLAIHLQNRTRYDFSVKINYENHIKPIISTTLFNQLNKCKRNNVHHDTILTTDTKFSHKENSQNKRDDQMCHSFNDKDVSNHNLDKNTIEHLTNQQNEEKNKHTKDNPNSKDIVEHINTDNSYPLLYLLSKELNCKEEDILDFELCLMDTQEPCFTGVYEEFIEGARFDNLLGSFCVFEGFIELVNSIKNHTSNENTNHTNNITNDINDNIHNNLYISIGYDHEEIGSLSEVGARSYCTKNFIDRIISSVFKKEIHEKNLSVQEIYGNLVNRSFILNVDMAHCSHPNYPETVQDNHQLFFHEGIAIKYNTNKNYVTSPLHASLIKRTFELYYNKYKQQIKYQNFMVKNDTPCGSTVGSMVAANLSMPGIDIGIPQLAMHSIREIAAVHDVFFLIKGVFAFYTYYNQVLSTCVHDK

[4] = molecular target: Heat shock protein HSP 90-alpha (Homo sapiens, UniProt P07900); assay: Luminescence-based dose response biochemical high throughput screening assay for inhibitors of the Heat Shock Protein 90 (HSP90). [Related pubchem assays: 1831 (Summary AID.), 1846 (Confirmation screen.), 1789 (Primary screen.)]
[5] = molecular target: T3, Sentrin-specific protease 7 (Homo sapiens, UniProt Q9BQF6); format: functional;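 further: Luminescence-based dose-response confirmation of ultra-high-throughput screening hits, measuring inhibition of SENP7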
T3 sequence (Q9BQF6 whole entry): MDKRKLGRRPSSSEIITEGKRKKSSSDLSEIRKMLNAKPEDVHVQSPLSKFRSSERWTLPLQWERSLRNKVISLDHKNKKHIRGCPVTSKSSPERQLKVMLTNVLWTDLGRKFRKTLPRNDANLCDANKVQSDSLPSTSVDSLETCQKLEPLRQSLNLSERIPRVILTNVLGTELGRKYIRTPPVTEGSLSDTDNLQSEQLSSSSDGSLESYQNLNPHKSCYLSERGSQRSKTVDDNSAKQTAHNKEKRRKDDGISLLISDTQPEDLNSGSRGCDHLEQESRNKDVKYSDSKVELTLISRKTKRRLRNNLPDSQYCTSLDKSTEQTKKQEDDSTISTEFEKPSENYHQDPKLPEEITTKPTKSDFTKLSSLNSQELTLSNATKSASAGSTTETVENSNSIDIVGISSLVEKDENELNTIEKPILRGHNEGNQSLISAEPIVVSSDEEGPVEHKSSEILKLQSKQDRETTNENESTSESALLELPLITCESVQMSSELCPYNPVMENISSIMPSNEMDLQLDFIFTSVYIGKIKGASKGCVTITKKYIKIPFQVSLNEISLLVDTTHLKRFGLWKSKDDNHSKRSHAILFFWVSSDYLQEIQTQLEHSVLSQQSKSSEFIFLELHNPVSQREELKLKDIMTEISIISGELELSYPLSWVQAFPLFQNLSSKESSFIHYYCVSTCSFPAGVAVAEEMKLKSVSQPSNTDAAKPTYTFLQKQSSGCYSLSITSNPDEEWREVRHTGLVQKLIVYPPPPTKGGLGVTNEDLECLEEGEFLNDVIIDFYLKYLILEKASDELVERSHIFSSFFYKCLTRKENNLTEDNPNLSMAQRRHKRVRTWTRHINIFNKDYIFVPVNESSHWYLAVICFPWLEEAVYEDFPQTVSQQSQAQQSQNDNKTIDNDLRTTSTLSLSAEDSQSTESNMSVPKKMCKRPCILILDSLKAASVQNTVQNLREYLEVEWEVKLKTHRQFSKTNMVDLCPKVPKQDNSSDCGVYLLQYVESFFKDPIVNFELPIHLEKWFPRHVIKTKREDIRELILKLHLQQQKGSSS

[6] = molecular target: T4, Sentrin-specific protease 6 (Homo sapiens, UniProt Q9GZR1); format: functional;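 further: Luminescence-based dose-response confirmatory assay of SENP6 inhibition, following up an ultra-high-throughput screen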
T4 sequence (Q9GZR1 whole entry): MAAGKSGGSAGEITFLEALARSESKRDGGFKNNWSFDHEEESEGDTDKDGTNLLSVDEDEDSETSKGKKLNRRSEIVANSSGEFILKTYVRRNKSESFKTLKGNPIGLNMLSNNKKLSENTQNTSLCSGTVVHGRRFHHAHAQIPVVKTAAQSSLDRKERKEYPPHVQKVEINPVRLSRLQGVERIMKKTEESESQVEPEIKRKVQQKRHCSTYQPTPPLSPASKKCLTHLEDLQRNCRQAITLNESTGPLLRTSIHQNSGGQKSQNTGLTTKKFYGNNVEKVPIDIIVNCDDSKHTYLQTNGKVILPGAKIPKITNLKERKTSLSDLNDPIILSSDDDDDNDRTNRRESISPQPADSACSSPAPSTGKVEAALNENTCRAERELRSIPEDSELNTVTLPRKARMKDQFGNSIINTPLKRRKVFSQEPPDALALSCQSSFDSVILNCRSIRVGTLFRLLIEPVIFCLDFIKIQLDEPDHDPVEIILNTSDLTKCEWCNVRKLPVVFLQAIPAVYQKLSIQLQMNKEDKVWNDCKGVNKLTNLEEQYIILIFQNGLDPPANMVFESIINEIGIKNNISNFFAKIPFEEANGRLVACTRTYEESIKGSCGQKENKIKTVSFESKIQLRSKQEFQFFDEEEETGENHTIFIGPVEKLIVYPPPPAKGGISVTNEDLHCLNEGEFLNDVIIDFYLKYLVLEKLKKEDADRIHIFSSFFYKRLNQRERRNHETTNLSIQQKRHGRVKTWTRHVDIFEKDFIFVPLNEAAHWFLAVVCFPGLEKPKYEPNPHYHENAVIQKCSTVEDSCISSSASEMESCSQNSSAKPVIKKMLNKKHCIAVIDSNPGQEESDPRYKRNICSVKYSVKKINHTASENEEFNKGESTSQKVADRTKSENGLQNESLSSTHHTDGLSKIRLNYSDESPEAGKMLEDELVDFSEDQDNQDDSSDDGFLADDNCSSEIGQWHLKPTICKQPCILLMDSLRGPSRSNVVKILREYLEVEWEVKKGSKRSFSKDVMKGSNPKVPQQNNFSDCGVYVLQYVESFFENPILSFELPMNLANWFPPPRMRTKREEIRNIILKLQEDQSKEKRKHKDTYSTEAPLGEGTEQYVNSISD

[7] = molecular target: T5, Sentrin-specific protease 8 (Homo sapiens, UniProt Q96LD8); format: functional;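 further: luminescence read-out of SENP8 inhibition, dose-response confirmation following an ultra-high-throughput screen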
T5 sequence (Q96LD8 whole entry): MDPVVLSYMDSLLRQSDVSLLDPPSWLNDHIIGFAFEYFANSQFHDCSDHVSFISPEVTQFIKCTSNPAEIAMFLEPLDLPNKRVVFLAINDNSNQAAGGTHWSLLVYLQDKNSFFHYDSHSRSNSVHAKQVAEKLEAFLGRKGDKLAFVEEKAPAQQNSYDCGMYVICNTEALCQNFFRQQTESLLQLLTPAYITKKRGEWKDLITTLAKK

[8] = molecular target: T6, Caspase-3 (Homo sapiens, UniProt P42574); format: functional;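 further: Dose-response selectivity test against caspase-3 for candidate inhibitors of sentrin-specific proteases (SENPs)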
T6 sequence (P42574 whole entry): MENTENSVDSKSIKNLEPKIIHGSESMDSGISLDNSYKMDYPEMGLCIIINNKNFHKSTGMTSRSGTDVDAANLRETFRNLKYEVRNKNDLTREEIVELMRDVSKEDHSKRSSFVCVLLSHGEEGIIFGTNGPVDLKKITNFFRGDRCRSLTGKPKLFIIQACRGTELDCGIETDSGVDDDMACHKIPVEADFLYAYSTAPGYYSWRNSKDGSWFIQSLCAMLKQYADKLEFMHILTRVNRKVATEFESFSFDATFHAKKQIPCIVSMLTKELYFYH

[9] = molecular target: Prothrombin (Homo sapiens, UniProt P00734); assay: Thrombin 1536 HTS Dose Response Confirmation. [Related pubchem assays: 1046 (Thrombin 1536 HTS; hits were confirmed in this assay)]; format: functional
[10] = molecular target: Kallikrein-7 (Homo sapiens, UniProt P49862); assay: Fluorescence Intensity-based biochemical primary high throughput dose response assay to identify activators of kallikrein-7 (K7) zymogen.
[11] = Luminescence Cell-Based Dose Response HTS to Identify Inhibitors of 5'UTR Stem-Loop Driven Prion Protein mRNA Translation in H4 Neuroglioblastoma Cells. [Related pubchem assays: 1827 (Project Summary), 1813 (Primary HTS)]; format: functional
[12] = alpha-synuclein stem-loop luciferase translation blockers – H4 neuroglioma cells, luminescence, confirmation (AID 1988); format: functional, cell-based
[13] = molecular target: T7, Mannose-6-phosphate isomerase (Homo sapiens, UniProt P34949); assay: MPI inhibition at elevated mannose 6-phosphate – biochemical, fluorescence intensity, high mannose 6-phosphate, primary screen (AID 1220)
T7 sequence (P34949 whole entry): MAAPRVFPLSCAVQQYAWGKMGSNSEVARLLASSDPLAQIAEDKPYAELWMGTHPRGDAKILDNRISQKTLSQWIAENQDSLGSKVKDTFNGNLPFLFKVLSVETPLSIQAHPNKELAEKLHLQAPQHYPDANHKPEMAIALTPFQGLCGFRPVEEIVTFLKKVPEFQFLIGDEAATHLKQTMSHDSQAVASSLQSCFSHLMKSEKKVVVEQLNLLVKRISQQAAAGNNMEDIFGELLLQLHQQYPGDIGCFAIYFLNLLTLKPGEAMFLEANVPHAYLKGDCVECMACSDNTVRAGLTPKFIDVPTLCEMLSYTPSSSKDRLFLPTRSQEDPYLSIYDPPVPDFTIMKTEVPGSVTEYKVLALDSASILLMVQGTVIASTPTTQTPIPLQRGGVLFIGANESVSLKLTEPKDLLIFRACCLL

[14] = luciferase reporter signal suppression in cells – H4 neuroglioma cells, luminescence, dose response (AID 1990); format: functional, cell-based
[15] = molecular target: Luciferin 4-monooxygenase (Photinus pyralis, UniProt P08659); assay: Counter Screen for Luciferase-based Assay Positives. [Related pubchem assays: 620, 618, 411 ]
[16] = system: HT-1080; assay: HT1080 cell viability loss – fluorescence readout (AID 620); format: functional, cell-based; details: Homo sapiens
[17] = P. falciparum Dd2 growth inhibitors, dose response, SYBR Green, cherry-picked samples (AID 1159567); format: functional, cell-based

Chain of Procathepsin L (P07711 whole entry): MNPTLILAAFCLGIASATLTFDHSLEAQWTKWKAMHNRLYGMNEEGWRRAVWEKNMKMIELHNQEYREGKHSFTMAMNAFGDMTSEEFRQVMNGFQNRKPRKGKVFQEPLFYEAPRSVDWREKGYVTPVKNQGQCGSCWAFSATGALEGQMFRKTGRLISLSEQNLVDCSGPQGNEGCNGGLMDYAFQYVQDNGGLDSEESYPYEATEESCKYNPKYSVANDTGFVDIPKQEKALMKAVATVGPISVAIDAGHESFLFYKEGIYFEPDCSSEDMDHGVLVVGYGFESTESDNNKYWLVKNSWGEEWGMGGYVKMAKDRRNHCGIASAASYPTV
Chain of Kallikrein-7 (P49862 whole entry): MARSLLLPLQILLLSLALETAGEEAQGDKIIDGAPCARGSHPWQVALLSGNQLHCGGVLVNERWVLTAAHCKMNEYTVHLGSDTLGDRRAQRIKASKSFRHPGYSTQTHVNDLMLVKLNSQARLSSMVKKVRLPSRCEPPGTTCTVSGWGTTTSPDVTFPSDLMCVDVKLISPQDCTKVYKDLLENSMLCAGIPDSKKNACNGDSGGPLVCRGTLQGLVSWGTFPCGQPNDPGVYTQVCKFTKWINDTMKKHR
Chain of Luciferin 4-monooxygenase (P08659 whole entry): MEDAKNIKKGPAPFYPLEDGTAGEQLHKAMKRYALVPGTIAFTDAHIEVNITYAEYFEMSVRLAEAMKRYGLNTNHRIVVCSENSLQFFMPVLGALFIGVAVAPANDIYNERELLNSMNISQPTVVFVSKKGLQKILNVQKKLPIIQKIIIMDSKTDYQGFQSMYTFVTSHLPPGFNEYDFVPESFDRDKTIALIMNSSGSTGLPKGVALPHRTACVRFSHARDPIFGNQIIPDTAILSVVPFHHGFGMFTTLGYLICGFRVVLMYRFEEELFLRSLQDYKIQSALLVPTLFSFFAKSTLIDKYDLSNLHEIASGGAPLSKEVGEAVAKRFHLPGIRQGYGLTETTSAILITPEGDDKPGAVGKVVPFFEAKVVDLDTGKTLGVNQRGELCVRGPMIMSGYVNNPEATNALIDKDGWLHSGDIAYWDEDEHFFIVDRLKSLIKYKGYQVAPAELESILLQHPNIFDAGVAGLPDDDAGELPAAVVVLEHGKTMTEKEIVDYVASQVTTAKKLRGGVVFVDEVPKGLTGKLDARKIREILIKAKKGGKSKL

## Cc1ccc(Nc2nnc(SCC(=O)NC(Cc3c[nH]c4ccccc34)C(=O)O)s2)cc1 (centres undefined)
[1]
  IC50: 3.25 µM (active)
[2]
  IC50: > 59.6 µM (not active)
[3]
  IC50: > 73.5 µM (not active)

## O=C(OCc1ccccn1)c1ccc(COc2ccc3ccccc3c2)o1
[4]
  IC50: 2.61 µM (active)

## CN1C(=O)S/C(=C/c2ccc(OCc3cccc(C(=O)O)c3)cc2)C1=O
[5]
  IC50: 6.05 µM (active)
[6]
  IC50: 4.42 µM (active)
[7]
  IC50: 8.88 µM (active)
[8]
  IC50: 88.1 µM (active)
[4]
  IC50: > 20 µM (not active)

## CCC(=O)n1nc(-c2cccnc2)nc1NCc1ccccc1
[9]
  IC50: 0.0029 µM (active)

## C=CCNc1nc(NCc2ccccc2)c(C#N)c2c1CN(C)CC2
[10]
  EC50: 13.1 µM (inactive)
[11]
  EC50: > 120 µM (not active)
[12]
  EC50: > 120 µM (not active)
[13]
  IC50: > 50 µM (not active)
[14]
  EC50: > 120 µM (not active)

## Cc1cc(C)n(-c2nc3ccccc3nc2N2CCC(C)CC2)n1
[15]
  EC50: 1.01 µM (active)
[16]
  EC50: > 50 µM (not active)

## O=C(CCC1CCCN(C(=O)C2(c3ccccc3)CC2)C1)N1CCN(c2ccccn2)CC1 (centres undefined)
[9]
  IC50: > 50 µM (not active)

## C#CCn1cc(/C=C2\NC(=O)NC2=O)c2ccccc21
[4]
  IC50: 1.31 µM (active)

## N#Cc1c(NC(=O)C2CC(Cl)=CCC2C(=O)O)sc2c1CCCC2 (centres undefined)
[1]
  IC50: < 1 µM (active)
[2]
  IC50: > 59.6 µM (not active)
[3]
  IC50: > 73.5 µM (not active)

## CCCCN1C(=O)NC(=O)C2(Cc3c(nc4ccccn4c3=O)N3CCc4ccccc4C32)C1=O (centres undefined)
[9]
  IC50: 5.42 µM (active)

## COc1ccc2c3c(n(C)c2c1)[C@@H](CO)N(Cc1ccccc1)CC31CCN(S(=O)(=O)c2ccc(C)cc2)CC1
[17]
  AC50: 6.1 µM (active)
